These results are taken from US20210380606A1, “5-AZAINDAZOLE DERIVATIVES AS ADENOSINE RECEPTOR ANTAGONISTS” (Merck Patent GmbH, priority 2018, published 2021).

Assay [1] addresses T1, human A2B receptors (Homo sapiens, UniProt P29275).
T1 construct: expressed in transfected cells; host or cells: HEK293
T1 sequence (P29275 1-332): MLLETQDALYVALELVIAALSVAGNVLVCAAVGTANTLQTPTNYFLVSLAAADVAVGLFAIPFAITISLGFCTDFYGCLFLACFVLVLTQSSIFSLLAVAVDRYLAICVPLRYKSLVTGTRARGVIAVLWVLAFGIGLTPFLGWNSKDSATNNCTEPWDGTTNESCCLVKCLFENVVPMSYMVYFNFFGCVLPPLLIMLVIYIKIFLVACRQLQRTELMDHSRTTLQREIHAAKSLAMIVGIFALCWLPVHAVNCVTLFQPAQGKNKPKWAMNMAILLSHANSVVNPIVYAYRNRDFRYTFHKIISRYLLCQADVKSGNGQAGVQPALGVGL
The assay can be described thus: Functional human A2B receptor activity, recombinant HEK293 cells, cAMP (HTRF). The following applies: read-out: A2B (Category). The format is cell-based. The procedure, abridged:
(§1)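 cAMP accumulation, determined by HTRF after a 15 min incubation, served as the functional measure of receptor activity.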

Assay [2] has as its target T2, human A2A receptors (Homo sapiens, UniProt P29274).
T2 construct: expressed in transfected cells; host or cells: HEK293
Briefly: Functional human A2A receptor activity, recombinant HEK293 cells, cAMP (HTRF). The class given is cell-based. The following applies: read-out: A2A (Category). The procedure, abridged:
as §1
A general note: Time-resolved FRET reads energy transfer from a long-lived donor to a nearby acceptor.

T2 sequence (P29274 whole entry): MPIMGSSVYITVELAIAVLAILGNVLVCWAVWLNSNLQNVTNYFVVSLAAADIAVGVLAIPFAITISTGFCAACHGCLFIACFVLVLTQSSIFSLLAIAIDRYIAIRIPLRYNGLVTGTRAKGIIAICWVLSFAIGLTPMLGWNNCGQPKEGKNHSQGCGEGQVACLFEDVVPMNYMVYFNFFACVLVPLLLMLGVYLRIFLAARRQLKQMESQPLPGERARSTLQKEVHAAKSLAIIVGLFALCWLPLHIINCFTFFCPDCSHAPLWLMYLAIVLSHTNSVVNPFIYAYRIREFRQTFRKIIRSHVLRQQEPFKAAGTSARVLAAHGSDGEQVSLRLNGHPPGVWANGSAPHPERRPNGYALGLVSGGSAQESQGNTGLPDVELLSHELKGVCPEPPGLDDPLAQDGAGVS

In the case of `CS(=O)(=O)Cn1nc(-c2coc3ccc(F)cc23)c2cnc(C(=O)N3CC4CCC(C3)O4)cc21` [Compound 111, [3-(5-fluorobenzofuran-3-yl)-1-(methylsulfonylmethyl)pyrazolo[4,3-c]-pyridin-6-yl]-(8-oxa-3-azabicyclo[3.2.1]octan-3-yl)methanone], the IC50 in assay [1] and in assay [2] was below 0.1 µM in each case.
For `O=C(c1cc2c(cn1)c(-c1coc3ccccc13)nn2CC(F)(F)F)N1CCC(O)CC1` [Compound 207, [3-Benzofuran-3-yl-1-(2,2,2-trifluoro-ethyl)-1H-pyrazolo[4,3-c]pyridin-6-yl]-(4-hydroxy-piperidin-1-yl)-methanone], the IC50 in assay [1] and in assay [2] was below 0.1 µM throughout.
Take `O=C(c1cc2c(cn1)c(-c1cnn3ccccc13)nn2CC(F)(F)F)N1CCOCC(O)C1` (stereo not drawn) [Compound 119, (6-hydroxy-1,4-oxazepan-4-yl)-[3-pyrazolo[1,5-a]pyridin-3-yl-1-(2,2,2-trifluoroethyl)pyrazolo[4,3-c]pyridin-6-yl]methanone]: the IC50 in assay [1] is below 1 µM; in assay [2] it was below 0.1 µM.
Turning to `O=C(c1cc2c(cn1)c(-c1cnc3c(F)cc(F)cn13)nn2CC(F)(F)F)N1CCCC(O)C1` (stereo not drawn) [Compound 151, [3-(6,8-Difluoro-imidazo[1,2-a]pyridin-3-yl)-1-(2,2,2-trifluoro-ethyl)-1H-pyrazolo[4,3-c]pyridin-6-yl]-(3-hydroxy-piperidin-1-yl)-methanone], the IC50 in assay [1] was below 1 µM; in assay [2], below 0.1 µM.
On the same counts, the results for `CS(=O)(=O)Cn1nc(-c2cnn3ccccc23)c2cnc(C(=O)N3CC4CCC(C3)O4)cc21` [Compound 108, (1-Methanesulfonylmethyl-3-pyrazolo[1,5-a]pyridine-3-yl-1H-pyrazolo[4,3-c]pyridine-6-yl)-(8-oxa-3-aza-bicyclo[3.2.1]oct-3-yl)-methanone] are below 1 µM and below 0.1 µM.
For `O=C(c1cc2c(cn1)c(-c1cnc3ccc(F)cn13)nn2CC(F)(F)F)N1[C@@H]2CC[C@H]1C[C@@H](O)C2` [Compound 86, [3-(6-fluoroimidazo[1,2-a]pyridin-3-yl)-1-(2,2,2-trifluoroethyl)pyrazolo[4,3-c]pyridin-6-yl]-(3-endo-hydroxy-8-azabicyclo[3.2.1]octan-8-yl)methanone] the same measures were below 0.1 µM and below 0.1 µM.
On to `CC1(CO)CCN(C(=O)c2cc3c(cn2)c(-c2cnc4c(F)cc(F)cn24)nn3CC(F)(F)F)CC1` [Compound 176, [3-(6,8-Difluoro-imidazo[1,2-a]pyridin-3-yl)-1-(2,2,2-trifluoro-ethyl)-1H-pyrazolo[4,3-c]pyridin-6-yl]-(4-hydroxymethyl-4-methyl-piperidin-1-yl)-methanone], for which the values for the IC50 in assay [1] and in assay [2] were below 1 µM and below 0.1 µM, respectively.
`COCC1CCCN1C(=O)c1cc2c(cn1)c(-c1cnc3c(F)cc(F)cn13)nn2CC(F)(F)F` (stereo not drawn) [Compound 149, [3-(6,8-Difluoro-imidazo[1,2-a]pyridin-3-yl)-1-(2,2,2-trifluoro-ethyl)-1H-pyrazolo[4,3-c]pyridin-6-yl]-(2-methoxymethyl-pyrrolidin-1-yl)-methanone]: the IC50 in assay [1] was below 1 µM; in assay [2], below 0.1 µM.
With `CC1(O)CC2CC1CN2C(=O)c1cc2c(cn1)c(-c1coc3ccccc13)nn2CC(F)(F)F` (stereo not drawn) [Compound 211, [3-Benzofuran-3-yl-1-(2,2,2-trifluoro-ethyl)-1H-pyrazolo[4,3-c]pyridin-6-yl]-(5-endo-hydroxy-5-exo-methyl-2-aza-bicyclo[2.2.1]hept-2-yl)-methanone], the IC50 in assay [1] was below 1 µM; in assay [2], below 0.1 µM.
Regarding `NC(=O)c1ccc2ncc(-c3nn(CC(F)(F)F)c4cc(C(=O)N5CC6CCC(C5)O6)ncc34)n2c1` [Compound 247, 3-[6-(8-Oxa-3-aza-bicyclo[3.2.1]octane-3-carbonyl)-1-(2,2,2-trifluoro-ethyl)-1H-pyrazolo[4,3-c]pyridin-3-yl]-imidazo[1,2-a]pyridine-6-carboxylic acid amide], the figures for the IC50 in assay [1] and in assay [2] were below 1 µM and below 0.1 µM, respectively.
Take `O=C(c1cc2c(cn1)c(-c1c[nH]c3ncccc13)nn2CC(F)(F)F)N1CCCCCC1` [Compound 92, Azepan-1-yl-[3-(1H-pyrrolo[2,3-b]pyridin-3-yl)-1-(2,2,2-trifluoro-ethyl)-1H-pyrazolo[4,3-c]pyridin-6-yl]-methanone]: the IC50 in assay [1] is below 1 µM; in assay [2], below 0.1 µM.
With `CS(=O)(=O)Cn1nc(-c2cnc3c(F)cc(F)cn23)c2cnc(C(=O)N3CCCOCC3)cc21` [Compound 15, [3-(6,8-Difluoro-imidazo[1,2-a]pyridin-3-yl)-1-methanesulfonylmethyl-1H-pyrazolo[4,3-c]pyridin-6-yl]-1,4-oxazepan-4-yl-methanone], the IC50 in assay [1] and in assay [2] was below 0.1 µM throughout.
`CS(=O)(=O)Cn1nc(-c2coc3ccccc23)c2cnc(C(=O)N3[C@@H]4CC[C@H]3C[C@@H](O)C4)cc21` [Compound 37, [3-(benzofuran-3-yl)-1-(methylsulfonylmethyl)pyrazolo[4,3-c]pyridin-6-yl]-(3-endo-hydroxy-8-azabicyclo[3.2.1]octan-8-yl)methanone]: the IC50 in assay [1] and in assay [2] was below 0.1 µM throughout.
Regarding `N#Cc1ccc2ncc(-c3nn(CC(F)(F)F)c4cc(C(=O)N5CCCOCC5)ncc34)n2c1` [Compound 81, 3-[6-(1,4-Oxazepane-4-carbonyl)-1-(2,2,2-trifluoro-ethyl)-1H-pyrazolo[4,3-c]pyridin-3-yl]-imidazo[1,2-a]pyridine-6-carbonitrile], the IC50 is below 1 µM in assay [1] and below 0.1 µM in assay [2].
On the same counts, the results for `O=C(c1cc2c(cn1)c(-c1coc3ccccc13)nn2CC(F)(F)F)N1CCCCCC1` [Compound 90, Azepan-1-yl-[3-benzofuran-3-yl-1-(2,2,2-trifluoro-ethyl)-1H-pyrazolo[4,3-c]pyridin-6-yl]-methanone] are below 0.1 µM and below 0.1 µM.
For `CS(=O)(=O)Cn1nc(-c2coc3ccccc23)c2cnc(C(=O)N3CCOCC(F)(F)C3)cc21` [Compound 29, (3-Benzofuran-3-yl-1-methanesulfonylmethyl-1H-pyrazolo[4,3-c]pyridin-6-yl)-(6,6-difluoro-1,4-oxazepan-4-yl)-methanone], the values for the IC50 in assay [1] and in assay [2] were below 1 µM and below 0.1 µM, respectively.
Take `CCN(C(=O)c1cc2c(cn1)c(-c1coc3ccccc13)nn2CC(F)(F)F)C1CCCCC1` [Compound 235, 3-(benzofuran-3-yl)-N-cyclohexyl-N-ethyl-1-(2,2,2-trifluoroethyl)pyrazolo[4,3-c]pyridine-6-carboxamide]: the IC50 in assay [1] was below 1 µM; in assay [2], below 0.1 µM.
On the same counts, the results for `CCC1(O)C2CCC1CN(C(=O)c1cc3c(cn1)c(-c1coc4ccccc14)nn3CC(F)(F)F)C2` (stereo not drawn) [Compound 210, [3-Benzofuran-3-yl-1-(2,2,2-trifluoro-ethyl)-1H-pyrazolo[4,3-c]pyridin-6-yl]-(8-exo-ethyl-8-endo-hydroxy-3-aza-bicyclo[3.2.1]oct-3-yl)-methanone] are below 1 µM and below 0.1 µM.
For `O=C(c1cc2c(cn1)c(-c1coc3ccc(F)cc13)nn2CC(F)(F)F)N1CCC(O)CC1` [Compound 115, [3-(5-fluorobenzofuran-3-yl)-1-(2,2,2-trifluoroethyl)pyrazolo[4,3-c]pyridin-6-yl]-(4-hydroxy-1-piperidyl)methanone] the same measures were below 0.1 µM and below 0.1 µM.
Regarding `O=C(c1cc2c(cn1)c(-c1coc3ccccc13)nn2CC(F)(F)F)N1CCOCC(F)C1` (stereo not drawn) [Compound 230, [3-(benzofuran-3-yl)-1-(2,2,2-trifluoroethyl)pyrazolo[4,3-c]pyridin-6-yl]-[6-fluoro-1,4-oxazepan-4-yl]methanone], the IC50 in assay [1] and in assay [2] was below 0.1 µM each time.
Take `O=C(c1cc2c(cn1)c(-c1cnc3cc(Cl)c(F)cn13)nn2CC(F)(F)F)N1CCCCCC1` [Compound 73, Azepan-1-yl-[3-(7-chloro-6-fluoro-imidazo[1,2-a]pyridin-3-yl)-1-(2,2,2-trifluoro-ethyl)-1H-pyrazolo[4,3-c]pyridin-6-yl]-methanone]: the IC50 in assay [1] and in assay [2] was below 0.1 µM in each case.
As for `O=C(c1cc2c(cn1)c(-c1c[nH]c3ccccc13)nn2CC(F)(F)F)N1[C@@H]2CC[C@H]1C[C@@H](O)C2` [Compound 112, (3-endo-hydroxy-8-azabicyclo[3.2.1]octan-8-yl)-[3-(1H-indol-3-yl)-1-(2,2,2-trifluoroethyl)pyrazolo[4,3-c]pyridin-6-yl]methanone], the IC50 in assay [1] and in assay [2] was below 0.1 µM throughout.
Turning to `CS(=O)(=O)Cn1nc(-c2coc3ccccc23)c2cnc(C(=O)N3CC4CCC(C3)C4O)cc21` (stereo not drawn) [Compound 30, (3-Benzofuran-3-yl-1-methanesulfonylmethyl-1H-pyrazolo[4,3-c]pyridin-6-yl)-(8-endo-hydroxy-3-aza-bicyclo[3.2.1]oct-3-yl)-methanone], the IC50 in assay [1] and in assay [2] was below 0.1 µM in each case.
Take `CS(=O)(=O)Cn1nc(-c2coc3ccccc23)c2cnc(C(=O)N3CCCC(O)CC3)cc21` (stereo not drawn) [Compound 40, (3-Benzofuran-3-yl-1-methanesulfonylmethyl-1H-pyrazolo[4,3-c]pyridin-6-yl)-(4-hydroxyazepan-1-yl)-methanone]: the IC50 in assay [1] and in assay [2] was below 0.1 µM each time.
